Assays:
CU-ACC2 = experiment: area under concentration-response curve (viability) (AUC (a.u.)); higher = less active; conditions: 48 h
In short: (§1)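 Concentration-response curves were fitted to obtain AC50 and area under the curve, keeping inhibitory or non-responding curve classes only. Data came from CellTiter-Glo luminescence, normalised per plate to vehicle and empty-well controls, in three adrenocortical carcinoma cell lines. These were treated in 1,536-well plates with library compounds at 11 concentrations and read after 48 h.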

NCI-H295R = experiment: as above; conditions: 48 h
In short: as §1

C=Cc1cc(O)cc2nc(-c3ccc(O)c(F)c3)oc12
area under concentration-response curve (CU-ACC2): 587
area under concentration-response curve (NCI-H295R): 550

CC/1=N/C2=CC=CC(=C2C(=O)N1C3CCC(=O)NC3=O)N (stereo not drawn)
area under concentration-response curve (CU-ACC2): 635
area under concentration-response curve (NCI-H295R): 575

NC(=S)N/N=C/c1ncccc1N
area under concentration-response curve (CU-ACC2): 442
area under concentration-response curve (NCI-H295R): 440

O=C1c2c(O)cc(O)cc2O[C@H](c2ccc(O)c(O)c2)[C@H]1O
area under concentration-response curve (CU-ACC2): 583
area under concentration-response curve (NCI-H295R): 539

NCCOc1cc(C(=O)Nc2cc(OCCN)c3ccccc3n2)nc(C(=O)Nc2cc(OCCN)c3ccccc3n2)c1
area under concentration-response curve (CU-ACC2): 454
area under concentration-response curve (NCI-H295R): 507

NC\1=N\C(=O)N(\C=C1)[C@@H]2O[C@H](CO)[C@@H](O)[C@@H]2O
area under concentration-response curve (CU-ACC2): 551
area under concentration-response curve (NCI-H295R): 504

C[C@@H](O)[C@@H]1NC(=O)[C@H](CCCCN)NC(=O)[C@@H](Cc2c[nH]c3ccccc23)NC(=O)[C@H](Cc2ccccc2)NC(=O)[C@@H](NC(=O)[C@H](N)Cc2ccccc2)CSSC[C@@H](C(=O)N[C@H](CO)[C@@H](C)O)NC1=O
area under concentration-response curve (CU-ACC2): 648
area under concentration-response curve (NCI-H295R): 612

C[C@]12CCC\3=C\4CCC(=O)\C=C4CC[C@H]3[C@@H]1CC[C@@]2(O)CC#N
area under concentration-response curve (CU-ACC2): 649
area under concentration-response curve (NCI-H295R): 606

NC(=O)c1ccc(N(C(N)=O)c2c(F)cccc2F)nc1-c1ccc(F)cc1F
area under concentration-response curve (CU-ACC2): 440
area under concentration-response curve (NCI-H295R): 471

CN1C(=O)\C(=C/C2=C1N=C(NC3CCOCC3)N=C2)OC4=C(F)C=C(F)C=C4
area under concentration-response curve (CU-ACC2): 611
area under concentration-response curve (NCI-H295R): 565

NC(=O)c1cccnc1
area under concentration-response curve (CU-ACC2): 608
area under concentration-response curve (NCI-H295R): 569

C[S+](=O)([O-])c1ccc(-c2cnc(N)c(C(=O)Nc3ccccc3)n2)cc1
area under concentration-response curve (CU-ACC2): 473
area under concentration-response curve (NCI-H295R): 534

CNC(=O)c1ccc2cc(C3(O)CCn4cncc43)ccc2c1 (stereo not drawn)
area under concentration-response curve (CU-ACC2): 599
area under concentration-response curve (NCI-H295R): 556

Cc1cc(N2CCOCC2)ccc1Nc1nc(NC2CCCCC2)c2nc[nH]c2n1
area under concentration-response curve (CU-ACC2): 587
area under concentration-response curve (NCI-H295R): 539

CC[C@@](C)(Nc1ccnc(-c2c[nH]c3ncccc23)n1)C(=O)NCC(F)(F)F
area under concentration-response curve (CU-ACC2): 589
area under concentration-response curve (NCI-H295R): 539

NC[C@H](O)c1ccc(O)c(O)c1
area under concentration-response curve (CU-ACC2): 636
area under concentration-response curve (NCI-H295R): 599

COC(=O)N(CC(=O)O)Cc1cccc(OCc2nc(-c3ccc(Cl)cc3)oc2C)c1
area under concentration-response curve (CU-ACC2): 553
area under concentration-response curve (NCI-H295R): 452

COC1=CC2=C(C=C1OCCCN3CCCC3)\N=C(N)/C24CCC4
area under concentration-response curve (CU-ACC2): 578
area under concentration-response curve (NCI-H295R): 547

O=C(c1ccc(F)cc1)N1CCC[C@H](c2nc(-c3ccc(F)cc3)no2)C1
area under concentration-response curve (CU-ACC2): 624
area under concentration-response curve (NCI-H295R): 576

CC[C@H](NC1=C2[NH]C=NC2=NC=N1)/C3=C(/C(=O)C4=CC=CC=C4O3)C5=CC=CC(=C5)F
area under concentration-response curve (CU-ACC2): 432
area under concentration-response curve (NCI-H295R): 488

CC1=C(C=CC=C1)N2/N=C(\C=C/C2=O)C3=C4NC[C@@H](CO)C[N]4N=C3C5=CC=C(F)C=C5
area under concentration-response curve (CU-ACC2): 422
area under concentration-response curve (NCI-H295R): 435

CN1C(=O)COc2c(C(=O)NC3CN4CCC3CC4)cc(Cl)cc21 (stereo not drawn)
area under concentration-response curve (CU-ACC2): 550
area under concentration-response curve (NCI-H295R): 533

CC1CC2=CC=CC=C2N1C(=O)C\C3=N\C(=O)\C=C(/N3)N4CCOCC4 (stereo not drawn)
area under concentration-response curve (CU-ACC2): 579
area under concentration-response curve (NCI-H295R): 548

O=C(NC[C@H](O)CN1CCc2ccccc2C1)c1ccnc(NC2CCC2)c1
area under concentration-response curve (CU-ACC2): 535
area under concentration-response curve (NCI-H295R): 539

CC[C@H](NC1=C2N=C[NH]C2=NC=N1)C/3=N/C4=C(C(=CC=C4)F)C(=O)N3C5=CC=CC=C5
area under concentration-response curve (CU-ACC2): 582
area under concentration-response curve (NCI-H295R): 536

CC[C@]12CC[C@H]3[C@@H](CCC/4=C/C(=O)CC[C@H]34)[C@@H]1\C=C/[C@@]2(O)C#C
area under concentration-response curve (CU-ACC2): 623
area under concentration-response curve (NCI-H295R): 602

Cc1cc(NC(=O)Nc2ccc(N(C)C)cc2)c2cc(F)cc(F)c2n1
area under concentration-response curve (CU-ACC2): 667
area under concentration-response curve (NCI-H295R): 613

O=C(COCC(=O)N1CCN(C(c2ccccc2)c2ccccc2)CC1)Nc1ccc(Cl)cc1C(=O)O
area under concentration-response curve (CU-ACC2): 529
area under concentration-response curve (NCI-H295R): 538

CC/C(=C(\c1ccccc1)c1ccc(OCCN(C)C)cc1)c1ccccc1
area under concentration-response curve (CU-ACC2): 455
area under concentration-response curve (NCI-H295R): 554

CCc1ccc2nc(Nc3cc(Cc4ccccc4)nc(N[C@H]4CC[C@H](O)CC4)n3)sc2c1
area under concentration-response curve (CU-ACC2): 620
area under concentration-response curve (NCI-H295R): 580

CCCCOc1ccc(CC(=O)NO)cc1
area under concentration-response curve (CU-ACC2): 631
area under concentration-response curve (NCI-H295R): 573

C[C@@H](NC1=CC=CC=C1C(O)=O)C/2=C/C(=C\N3C(=O)/C=C(\N=C23)N4CCOCC4)C
area under concentration-response curve (CU-ACC2): 535
area under concentration-response curve (NCI-H295R): 543

CC[C@H](NC(=O)[C@H](C)NC)C(=O)N1C[C@@H](O)C[C@H]1Cc1c(-c2[nH]c3cc(F)ccc3c2C[C@@H]2C[C@H](O)CN2C(=O)[C@H](CC)NC(=O)[C@H](C)NC)[nH]c2cc(F)ccc12
area under concentration-response curve (CU-ACC2): 602
area under concentration-response curve (NCI-H295R): 610

CN(C(Cc1ccc(OS(=O)(=O)c2cccc3cnccc23)cc1)C(=O)N1CCN(c2ccccc2)CC1)S(=O)(=O)c1cccc2cnccc12 (stereo not drawn)
area under concentration-response curve (CU-ACC2): 627
area under concentration-response curve (NCI-H295R): 576

NC/1=N/C(=O)N/C=C1F
area under concentration-response curve (CU-ACC2): 633
area under concentration-response curve (NCI-H295R): 595

CCC(c1ccc(O)cc1)C(CC)c1ccc(O)cc1 (stereo not drawn)
area under concentration-response curve (CU-ACC2): 656
area under concentration-response curve (NCI-H295R): 607

Cc1ccc(NC(=O)[C@H]2CCCN(C(=O)c3c(C)cccc3F)[C@H]2c2ccc(NC3CCCC3)cc2)cc1C(F)(F)F
area under concentration-response curve (CU-ACC2): 561
area under concentration-response curve (NCI-H295R): 521

O=NN(CCCl)C(=O)NC1CCCCC1
area under concentration-response curve (CU-ACC2): 503
area under concentration-response curve (NCI-H295R): 538

O=C(O)c1cnn(-c2nc3cc(Cl)c(OC(F)(F)F)cc3[nH]2)c1
area under concentration-response curve (CU-ACC2): 605
area under concentration-response curve (NCI-H295R): 548

OCc1ccccc1O[C@@H]1O[C@H](CO)[C@@H](O)[C@H](O)[C@H]1O
area under concentration-response curve (CU-ACC2): 616
area under concentration-response curve (NCI-H295R): 563

CCC(=O)Nc1cccc(Oc2nc(Nc3ccc(N4CCN(C)CC4)cc3OC)ncc2Cl)c1
area under concentration-response curve (CU-ACC2): 523
area under concentration-response curve (NCI-H295R): 465

COc1cc2ncnc(Nc3cccc(Cl)c3F)c2cc1OC(=O)N1CCN(C)C[C@H]1C
area under concentration-response curve (CU-ACC2): 610
area under concentration-response curve (NCI-H295R): 531

C[C@]12CCC3c4ccc(O)cc4CCC3C1CCC2=O (stereo partly drawn)
area under concentration-response curve (CU-ACC2): 565
area under concentration-response curve (NCI-H295R): 508

C/C(NNC(=O)c1cccc([S+](=O)([O-])N2CCOCC2)c1)=C1\C=C(Cl)C=CC1=O
area under concentration-response curve (CU-ACC2): 585
area under concentration-response curve (NCI-H295R): 545

CC(=O)Oc1ccccc1C(=O)Nc1ncc([N+](=O)[O-])s1
area under concentration-response curve (CU-ACC2): 634
area under concentration-response curve (NCI-H295R): 590

COc1ccc2[nH]c([S+]([O-])Cc3ncc(C)c(OC)c3C)nc2c1 (stereo not drawn)
area under concentration-response curve (CU-ACC2): 624
area under concentration-response curve (NCI-H295R): 576

CCc1cccc(CC)c1NC(=O)N1Cc2[nH]nc(NC(=O)c3ccc(N4CCN(C)CC4)cc3)c2C1
area under concentration-response curve (CU-ACC2): 614
area under concentration-response curve (NCI-H295R): 597

Cn1cnc(-c2cc3nccc(Oc4ccc(NC(=S)NC(=O)Cc5ccccc5)cc4F)c3s2)c1
area under concentration-response curve (CU-ACC2): 359
area under concentration-response curve (NCI-H295R): 412

CCC1(c2ccccc2)C(=O)NCNC1=O
area under concentration-response curve (CU-ACC2): 566
area under concentration-response curve (NCI-H295R): 521

Cc1ccc2c(=O)c3cccc(CC(=O)O)c3oc2c1C
area under concentration-response curve (CU-ACC2): 540
area under concentration-response curve (NCI-H295R): 486

CC(NC(C)(C)C)C(=O)c1cccc(Cl)c1 (stereo not drawn)
area under concentration-response curve (CU-ACC2): 526
area under concentration-response curve (NCI-H295R): 509

Nc1nc(N)c2nc(-c3cccc(Cl)c3)c(N)nc2n1
area under concentration-response curve (CU-ACC2): 596
area under concentration-response curve (NCI-H295R): 520

C/C(=N\NC(=O)c1cccc([S+](=O)([O-])N2CCOCC2)c1)c1cc(Cl)ccc1O
area under concentration-response curve (CU-ACC2): 640
area under concentration-response curve (NCI-H295R): 597

CCN(CC)CCCC(C)Nc1nc(C)cc(Nc2ccc3nc(C)cc(N)c3c2)n1 (stereo not drawn)
area under concentration-response curve (CU-ACC2): 478
area under concentration-response curve (NCI-H295R): 507

C[C@@H]1Cc2c([nH]c3ccccc23)[C@@H](c2c(F)cc(/C=C/C(=O)O)cc2F)N1CC(C)(C)F
area under concentration-response curve (CU-ACC2): 615
area under concentration-response curve (NCI-H295R): 593

CCCC[N+]1(C)[C@@H]2CC(OC(=O)[C@H](CO)c3ccccc3)C[C@H]1[C@@H]1O[C@@H]12 (stereo partly drawn)
area under concentration-response curve (CU-ACC2): 630
area under concentration-response curve (NCI-H295R): 568

Cc1cnc(-c2ccccc2C(C)C)nc1NCc1ccc(-n2ccnn2)cc1
area under concentration-response curve (CU-ACC2): 614
area under concentration-response curve (NCI-H295R): 563

COc1ccc(C(=O)CC(=O)c2ccc(C(C)(C)C)cc2)cc1
area under concentration-response curve (CU-ACC2): 595
area under concentration-response curve (NCI-H295R): 543

CN1CCN(c2ccc([N+](=O)[O-])c3no[n+]([O-])c23)CC1
area under concentration-response curve (CU-ACC2): 630
area under concentration-response curve (NCI-H295R): 583

Reference: the supplement of paper PMC10949913
